We go through 11 compounds from patent US6281194A, “Cycloalkyl inhibitors of protein farnesyltransferase” (Warner-Lambert Company, priority 1999, dated 2001).

Test [1] addresses T1, SF9 affinity purified rat farnesyl protein transferase (Rattus norvegicus, UniProt Q02293+Q04631).
T1 construct: made in house; host or cells: Sf9 insect cells (baculovirus system, inferred from b7)
Kind of test: PFT inhibitory activity. The class given is biochemical. As for the experimental part: The protein:farnesyltransferase (PFT) or farnesyl protein transferase (FPT) inhibitory activity of compounds of the present invention were assayed in HEPES buffer (pH 7.4) containing 5 mM potassium phosphate and 20 μM ZnCl2. The solution also contained 5 mM DTT (dithiothreitol), 5 mM MgCl2 and 0.1% PEG 8000. Assays were performed in 96 well plates (Wallec) and employed solutions composed of varying concentrations of a compound of the present invention in 100% DMSO (dimethylsulfoxide). Upon addition of both substrates, radiolabeled farnesyl pyrophosphate ([1-^3 H], specific activity 15-30 Ci/mmol, final concentration 134 nM) and (biotinyl)-Ahe-Thr-Lys-Cys-Val-Ile-Met ([3aS[3a alpha, 4 beta, 6a alpha]-hexahydro-2-oxo-1H-thieno[3,4-d]imidazole-5-pentanoic acid]-[7-aminoheptanoic acid]-Thr-Lys-Cys-Val-Ile-Met) (Ahe is 7-aminoheptanoic acid, Thr is threonine, Lys is lysine, Cys is cysteine, Val is valine, Ile is isoleucine and Met is methionine) (final concentration 0.2 μM), the enzyme reaction was started by addition of SF9 affinity purified rat farnesyl protein transferase. After incubation at 30° C. for 30 minutes, the reaction was terminated by diluting the reaction 2.5-fold with a stop buffer containing 1.5 M magnesium acetate, 0.2 M H3 PO4, 0.5% BSA (bovine serum albumin), and strepavidin beads (Amersham) at a concentration of 1.3 mg/mL. After allowing the plate to settle for 30 minutes at room temperature, radioactivity was quantitated on a microBeta counter (Model 1450, Wallec). The assay was also carried out without 5 mM potassium phosphate.

In test [2] the test system is ras farnesylation in ras-transformed cells. Kind of test: Gel shift assay. The settings on record: 18-hour incubation. Format: cell-based. As to the method:
Twenty-four hours after planting 2×10^6 ras-transformed cells per treatment condition, the farnesylation inhibitor is added at varying concentrations. Following an 18-hour incubation period, cells are lysed in phosphate-buffered saline containing 1% Triton X-100, 0.5% sodium deoxycholate, and 0.1% SDS (sodium dodecyl sulfate), pH 7.4 in the presence of several protease inhibitors (PMSF (phenylmethylsulfonylfluoride), antipain, leupeptin, pepstatin A, and aprotinin all at 1 μg/mL). Ras protein is immunoprecipitated from the supernatants by the addition of 3 μg v-H-ras Ab-2 (Y13-259 antibody from Oncogene Science). After overnight immunoprecipitation, 30 μL of a 50% protein G-Sepharose slurry (Pharmacia) is added followed by 45-minute incubation. Pellets are resuspended in 2× tris-glycine loading buffer (Novex) containing 5% β-mercaptoethanol and then denatured by 5 minutes boiling prior to electrophoresis on 14% Tris-glycine SDS gels. Using Western transfer techniques, proteins are transferred to nitrocellulose membranes followed by blocking in blocking buffer. Upon overnight incubation with primary antibody (pan-ras Ab-2 from Oncogene Science), an antimouse HRP (horse radish peroxidase) conjugate secondary antibody (Amersham) is employed for detection of the ras protein. Blots are developed using ECL(enhanced chemiluminescence) techniques (Amersham).

For test [3], the system named is H61 cells: NIH transformed 3T3 H-ras cells. The experiment in a line: Clonogenic assay (6 well plates). Format: cell-based. The following applies: H61 cells in soft agar, colonies counted after Day 13. As for the experimental part: Clonogenic Assay (6 well plates)
Sometime previous to setting up an actual test:
1. Make up 1.5% Bacto Agar in Milli-Q water and autoclave.
2. Make up 500 mL 2× DMEM-HG without phenol red by combining the following:
1 bottle DMEM base powder (Sigma D-5030)
Adjust pH to 7.1 with HCl; filter sterilize.
1. Set up makeshift water bath (beaker of water with thermometer, on hot plate) in the hood. Keep water temperature between 37° C. to 43° C.
2. […] 1.5% Bacto Agar for approximately 2 minutes on high, or until completely melted. Then let it cool somewhat before using it. (You can keep it from resolidifying by setting the bottle on the hot plate.) […]
Bottom Layer (0.6% agar) Top Layer (0.3% agar)
20% calf serum 20% calf serum
40% Bacto Agar (1.5%) 20% Bacto Agar (1.5%)
(H61 cells: NIH transformed
Depending on the volume of each layer needed, use either 50 mL conical tubes or 200 mL turnip tubes which can be floated in the "water bath".
4. Add 1 mL of bottom layer agar/medium to each well: deliver 1 mL warm agar/medium to a well; then using the tip of the pipet, spread the agar/medium around to completely cover the bottom. Repeat with next well.
5. Allow the plates to set at room temperature for about 5 minutes until the bottom layer solidifies.
6. Label sterile Falcon 2054 (12×75 mm) tubes and add appropriate volume of drug solutions into them.
7. Aliquot 4 μL of DMSO or drug solution per 1 mL of agar/medium to appropriate tubes; then add the agar/medium/cells to each tube. Always add 1 mL more than will actually be needed. Mix up and down in the pipet (gently); then deliver 1 mL to the center of each well. The upper layer is less viscous, so it will generally spread out over the bottom layer unaided. If necessary, rotate the plane of the plate gently to spread the top layer evenly over the bottom layer.
8. Let plates set for 5 or 10 minutes at room temperature to solidify, then put into 5% CO2, 37° C. incubator.
9. On Day 13, add 0.5 mL of INT (tetrazolium 1 mg/mL in Milli-Q H2 O, filter sterilized) and return plates to incubator.

[4] abbreviates: HEPES buffer pH 7.4 with 5 mM potassium phosphate, read-out: PFT Inhibitory Activity IC50 (μM) HEPES and 5 mM K3 PO4.
[5] abbreviates: HEPES buffer pH 7.4 without 5 mM potassium phosphate, read-out: PFT Inhibitory Activity IC50 (μM) HEPES.

Where two headings read alike, the source gives them in different places. Some results are limits rather than exact numbers.

Consider `C/C=C/CN(CC(=O)NCC1(c2ccccc2)CCC1)C(=O)[C@H](Cc1cnc[nH]1)NC(=O)OCc1ccccc1` (stereo in doubt) [Example 10, [(S)-trans]-[1-(But-2-enyl-{[(1-phenyl-cyclobutylmethyl)-carbamoyl]-methyl}-carbamoyl)-2-(3H-imidazol-4-yl)-ethyl]-carbamic Acid benzyl Ester], for which the IC50 in test [1] (setting [4]) was 0.36 µM; in test [1] (setting [5]), less than 0.001 µM. In test [2], the “Gel Shift (μM) M.E.D. (minimal effective dose to observe inhibition of ras farnesylation)” value is no more than 0.05 µM.
`O=C(CN(Cc1ccc(OCc2ccccc2)cc1)C(=O)[C@H](Cc1c[nH]cn1)NC(=O)OCc1ccccc1)NCC1(c2ccccc2)CC1` [Example 2]: the IC50 in test [1] (setting [4]) stood at 0.006 µM; in test [1] (setting [5]), 0.15 µM; in test [3] it was 180 nM. Also, in test [2], the “Gel Shift (μM) M.E.D. (minimal effective dose to observe inhibition of ras farnesylation)” value is 0.02 µM.
For `O=C(CN(Cc1ccc(OCc2ccccn2)cc1)C(=O)[C@H](Cc1c[nH]cn1)NC(=O)OCc1ccccc1)NCC1(c2ccccc2)CCC1` [Example 3], the IC50 was 0.0017 µM in test [1] (setting [4]), 0.14 µM in test [1] (setting [5]) and 140 nM in test [3]. In addition, in test [2], the “Gel Shift (μM) M.E.D. (minimal effective dose to observe inhibition of ras farnesylation)” value was 0.002 µM.
On to `Cc1ccc(CN(CC(=O)NCC2(c3ccccc3)CCC2)C(=O)[C@H](Cc2c[nH]cn2)NC(=O)OCc2ccccc2)cc1` [Example 4, (S)-[1-((4-Methyl-benzyl)-{[(1-phenyl-cyclobutyl-methyl)-carbamoyl]-methyl}-carbamoyl)-2-(1H-imidazol-4-yl)-ethyl]-carbamic Acid Benzyl Ester], for which the IC50 was 0.0054 µM in test [1] (setting [4]) and 0.26 µM in test [1] (setting [5]). Moreover, the “Gel Shift (μM) M.E.D. (minimal effective dose to observe inhibition of ras farnesylation)” value in test [2] worked out at 0.01 µM.
`O=C(CN(Cc1ccc(OCc2ccccc2)cc1)C(=O)[C@H](Cc1c[nH]cn1)NC(=O)OCc1ccccc1)NCC1(c2ccccc2)CCCC1` [Example 5, (S)-[1-((4-Benzyloxy-benzyl)-{[(1-phenyl-cyclopentylmethyl)-carbamoyl]-methyl}-carbamoyl)-2-(1H-imidazol-4-yl)-ethyl]-carbamic Acid benzyl Ester]: the IC50 in test [1] (setting [4]) amounted to 0.018 µM; in test [1] (setting [5]) it was 0.32 µM; in test [3] (312 h), 320 nM. Also, the “Gel Shift (μM) M.E.D. (minimal effective dose to observe inhibition of ras farnesylation)” value in test [2] is 0.2 µM.
The like results for `COc1ccc(CN(CC(=O)NCC2(c3ccccc3)CCC2)C(=O)[C@H](Cc2c[nH]cn2)NC(=O)OCc2ccccc2)cc1` [Example 6, (S)-[1-((4-Methoxy-benzyl)-{[(1-phenyl-cyclobutyl-methyl)-carbamoyl]-methyl}-carbamoyl)-2-(1H-imidazol-4-yl)-ethyl]-carbamic Acid benzyl Ester] were, in that order, 0.0029 µM, 0.26 µM, 210 nM and 0.002 µM.
Take `Cc1ccc(CN(CC(=O)NCC2(c3ccccc3)CCC2)C(=O)[C@H](Cc2c[nH]cn2)NC(=O)N(C)Cc2ccccc2)cc1` [Example 7, (S)-2-(3-Benzyl-3-methyl-ureido)-3-(1H-imidazol-4-yl)-N-(4 methyl-benyl)-N-{[(1-phenyl-cyclobutylmethy)-carbomyl]-methyl}-propionamide]: the IC50 in test [1] (setting [4]) was 0.003 µM; in test [1] (setting [5]) it was 0.014 µM. In addition, in test [2], the “Gel Shift (μM) M.E.D. (minimal effective dose to observe inhibition of ras farnesylation)” value was 0.01 µM.
For the compound `CN(Cc1ccccc1)C(=O)N[C@@H](Cc1c[nH]cn1)C(=O)N(CC(=O)NCC1(c2ccccc2)CCC1)Cc1ccc(OCc2ccccc2)cc1` [Example 8, (S)-2-(3-Benzyl-3-methyl-ureido)-N-(4-benzyloxy-benzyl)-3-(1H-imidazol-4-yl)-N-{[(1-phenyl-cyclobutylmethyl)-carbamoyl]-methyl}-propionamide], the IC50 in test [1] (setting [4]) came to 0.015 µM; in test [1] (setting [5]) it was 0.068 µM. For the same compound, in test [2], the “Gel Shift (μM) M.E.D. (minimal effective dose to observe inhibition of ras farnesylation)” value came out at 0.01 µM.
As to `O=C(CN(Cc1ccc(OCc2ccccc2)cc1)C(=O)[C@H](Cc1c[nH]cn1)NC(=O)OCc1ccccc1)NCC1(c2c(Cl)cccc2Cl)CCC1` [Example 9, (S)-[1-[(4-Benzyloxy-benyl)-({[1-(2,6-dichlorophenyl)-cyclobutylmethyl]-carbamoyl}-methyl)-carbamoyl]-2-(1H-imidazol-4-yl)-ethyl]-carbamic Acid benzyl Ester], the figures for the IC50 in test [1] (setting [4]) and in test [1] (setting [5]) were 0.18 µM and 7 µM, respectively. In test [2], the “Gel Shift (μM) M.E.D. (minimal effective dose to observe inhibition of ras farnesylation)” value was greater than 0.2 µM.
Consider `CCCN(CC(=O)NCC1(c2ccccc2)CCC1)C(=O)[C@H](Cc1cnc[nH]1)NC(=O)OCc1ccccc1` [Example 11], for which the results for the IC50 in test [1] (setting [4]) and in test [1] (setting [5]) were 0.33 µM and less than 0.001 µM, respectively. Moreover, in test [2], the “Gel Shift (μM) M.E.D. (minimal effective dose to observe inhibition of ras farnesylation)” value is no more than 0.05 µM.
The corresponding values for “N-((1S)-1-(1H-4-imidazolylmethyl)-2-oxo-2-(2-oxo-2-[(1-phenylcyclobutyl)methyl]aminoethyl)[(1R)-1-phenylethyl]aminoethyl)carbamate [Example 12]” are 0.34 µM, 0.002 µM and no more than 0.05 µM.
